The target in this experiment is GVIA high affinity site, the N-type Ca^2+ channel (Rattus norvegicus, UniProt Q02294). The experiment is classed as binding.
Sequence of GVIA high affinity site, the N-type Ca^2+ channel (Q02294 whole entry, looked up): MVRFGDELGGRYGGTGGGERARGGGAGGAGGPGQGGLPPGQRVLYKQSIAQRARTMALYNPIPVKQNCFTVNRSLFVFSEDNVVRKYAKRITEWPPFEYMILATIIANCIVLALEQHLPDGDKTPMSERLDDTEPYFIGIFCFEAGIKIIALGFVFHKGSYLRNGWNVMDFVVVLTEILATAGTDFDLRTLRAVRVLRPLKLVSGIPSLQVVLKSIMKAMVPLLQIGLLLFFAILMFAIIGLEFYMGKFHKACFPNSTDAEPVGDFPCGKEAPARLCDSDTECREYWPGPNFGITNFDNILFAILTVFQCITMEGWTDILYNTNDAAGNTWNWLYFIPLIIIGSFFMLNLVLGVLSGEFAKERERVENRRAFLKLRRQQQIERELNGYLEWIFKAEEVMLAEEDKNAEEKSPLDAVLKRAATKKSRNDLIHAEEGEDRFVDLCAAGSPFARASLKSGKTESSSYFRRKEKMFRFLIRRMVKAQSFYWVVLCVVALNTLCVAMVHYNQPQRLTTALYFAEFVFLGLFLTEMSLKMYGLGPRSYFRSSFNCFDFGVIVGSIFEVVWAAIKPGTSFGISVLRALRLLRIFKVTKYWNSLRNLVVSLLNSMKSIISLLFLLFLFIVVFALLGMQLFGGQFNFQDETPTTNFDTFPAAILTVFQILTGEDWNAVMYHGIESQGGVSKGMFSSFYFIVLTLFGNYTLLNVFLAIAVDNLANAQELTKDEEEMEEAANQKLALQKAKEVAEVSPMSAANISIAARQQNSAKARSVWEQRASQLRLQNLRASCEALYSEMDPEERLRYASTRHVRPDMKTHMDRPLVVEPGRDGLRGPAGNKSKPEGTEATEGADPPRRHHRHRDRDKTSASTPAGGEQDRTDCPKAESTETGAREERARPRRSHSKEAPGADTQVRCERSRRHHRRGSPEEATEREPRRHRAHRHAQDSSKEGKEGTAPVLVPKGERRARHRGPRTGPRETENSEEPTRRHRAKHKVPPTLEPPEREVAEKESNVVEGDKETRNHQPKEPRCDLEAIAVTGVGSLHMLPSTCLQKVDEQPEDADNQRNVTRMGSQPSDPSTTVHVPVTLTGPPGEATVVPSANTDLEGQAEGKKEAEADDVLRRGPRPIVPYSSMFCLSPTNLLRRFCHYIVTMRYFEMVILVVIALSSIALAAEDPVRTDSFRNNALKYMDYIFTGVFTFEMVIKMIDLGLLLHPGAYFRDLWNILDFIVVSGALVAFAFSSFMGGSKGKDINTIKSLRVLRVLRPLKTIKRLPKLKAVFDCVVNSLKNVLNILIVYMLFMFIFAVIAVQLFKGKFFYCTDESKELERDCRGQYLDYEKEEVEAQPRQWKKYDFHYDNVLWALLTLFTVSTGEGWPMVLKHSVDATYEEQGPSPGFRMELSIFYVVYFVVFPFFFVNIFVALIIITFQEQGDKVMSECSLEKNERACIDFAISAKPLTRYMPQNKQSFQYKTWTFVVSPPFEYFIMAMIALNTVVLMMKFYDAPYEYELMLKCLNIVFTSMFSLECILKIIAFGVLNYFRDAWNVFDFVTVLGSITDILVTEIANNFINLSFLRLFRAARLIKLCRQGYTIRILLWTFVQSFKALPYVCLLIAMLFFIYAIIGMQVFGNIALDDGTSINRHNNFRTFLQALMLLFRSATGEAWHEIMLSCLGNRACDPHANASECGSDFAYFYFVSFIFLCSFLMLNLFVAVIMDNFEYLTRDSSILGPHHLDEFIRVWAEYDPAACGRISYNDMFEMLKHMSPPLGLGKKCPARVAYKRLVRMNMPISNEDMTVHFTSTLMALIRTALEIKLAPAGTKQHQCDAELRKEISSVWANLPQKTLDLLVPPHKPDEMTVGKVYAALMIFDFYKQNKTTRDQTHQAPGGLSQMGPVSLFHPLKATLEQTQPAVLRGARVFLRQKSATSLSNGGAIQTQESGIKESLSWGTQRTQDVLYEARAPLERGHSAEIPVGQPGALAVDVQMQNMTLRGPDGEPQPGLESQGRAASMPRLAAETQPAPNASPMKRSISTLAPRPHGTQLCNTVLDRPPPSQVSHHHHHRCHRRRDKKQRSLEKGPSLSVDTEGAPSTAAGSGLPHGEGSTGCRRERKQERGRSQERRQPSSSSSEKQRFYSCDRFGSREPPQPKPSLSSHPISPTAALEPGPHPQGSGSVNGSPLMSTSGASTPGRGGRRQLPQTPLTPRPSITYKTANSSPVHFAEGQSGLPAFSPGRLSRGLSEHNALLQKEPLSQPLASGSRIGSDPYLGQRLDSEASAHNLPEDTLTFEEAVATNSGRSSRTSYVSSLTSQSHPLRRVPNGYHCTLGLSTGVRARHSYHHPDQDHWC

With ω-agatoxin IVA, the “Competition for / displacement of 125I-GVIA binding” value is recorded as “did not”.

These data come from patent publication US5591821A (priority 1993, dated 1997).
